For orientation: clearance means the volume of plasma or blood freed of the substance per unit of time. Higher therefore signals a high capacity for elimination.

Among the data in ChEMBL document CHEMBL1153627, “Optimization of piperidin-4-yl-urea-containing melanin-concentrating hormone receptor 1 (MCH-R1) antagonists: Reducing hERG-associated liabilities” (Bioorg Med Chem Lett, 2009) are clearance values, retold here.

The nature of this data set: Clearance in rat. It counts as ADME, organism-based. Particulars: in vivo.

Regarding `O=C(NC1CCN(Cc2ccn(-c3ccc(C(F)(F)F)cc3)c2)CC1)N[C@H](CO)c1ccccc1`, the clearance was 154 mL/min/kg.
